According to article PMC6858451, “Rhesus Theta Defensin 1 Promotes Long Term Survival in Systemic Candidiasis by Host Directed Mechanisms” (Scientific Reports, 2019):
Converted amounts (≈) assume the structure as drawn.

Experiments:
[1] = system: clinical isolate of C. albicans; conditions: 10 mg/kg i.p. daily beginning 24 h after infection; cited from earlier work
Source text: Despite the remarkable in vitro properties of HDPs, efforts to develop them as therapeutics have met with limited success. Barriers encountered include lack of peptide stability, toxicity, adverse proinflammatory properties, and poor bioavailability.

[2] = system: C. albicans SC5314; test: Systemic candidiasis model, survival and renal fungal burden; type: in vivo, BALB/c mice
Procedure: The efficacy of RTD-1 in vivo was evaluated in an established model of systemic candidiasis using C. albicans SC5314. Both immunocompetent and immunosuppressed mouse models are employed in preclinical studies of systemic candidiasis. Since many of our preliminary studies employed the […] model, we conducted efficacy studies with RTD-1 and reference antifungal drugs in immunocompetent BALB/c mice. Mice were challenged i.v. with 3 × 10^5 blastospores at T = 0, which rapidly produces disseminated candidiasis and colonizes major organs in a manner resembling systemic candidiasis in humans. […] We analyzed the effect of a single 5 mg/kg dose of RTD-1 administered i.v., s.c., or i.p. immediately after i.v. fungal challenge, with i.p. saline as vehicle control. Fluco and Caspo, administered i.p. at 5 mg/kg, were used as drug comparators. […] In subsequent studies, antifungal agents were administered i.p. to circumvent potentially confounding effects resulting from treatment by the same route as infection, which was i.v. in all experiments.
(§1) BALB/c female mice (7–8 weeks old) and CD-1 female mice (4–5 weeks old) were obtained from Charles River Laboratories and allocated randomly in groups of five mice per cage. Mice were maintained on a 12 h light/dark cycle in thermostatically controlled rooms for the duration of the experiment. C. albicans inocula were prepared fresh each day from saturated cultures grown overnight in YPD medium, washed in sterile PBS, and fungi were counted with hemocytometer. Stock suspensions were prepared in sterile PBS. BALB/c mice were challenged with 2 × 10^6 CFU/ml wild-type C. albicans reference strain SC5314, while CD-1 mice were challenged with 1.8 × 10^7 CFU/ml (0.15–0.2 ml) C. albicans clinical isolate 53264 by i.v. injection into the lateral caudal tail vein using a 28 G 1/2 inch needle. Animals were treated by i.v., s.c., or i.p. routes immediately post-infection (p.i.) or 24 h p.i. with sterile saline (control), RTD-1, fluconazole, or caspofungin administered at the concentrations indicated in a 0.200 ml. Mice were weighted and monitored daily for general clinical condition. Mice were euthanized as approved by the USC IACUC and in compliance with the National Institutes of Health Guide for the Care and Use of Laboratory Animals. All experiments were repeated at least three times.
(§2) To assess systemic fungal clearance, renal fungal burden was determined. Mice were euthanized at times indicated, and both kidneys were weighed, homogenized in 5 ml of sterile PBS, and serial dilutions of homogenate were plated on YPD agar plates and incubated at 30 °C for 2 days. CFU per gram of kidney was calculated.

[3] = system: C. albicans SC5314; test: MIC/MFC, broth microdilution (modified CLSI M27-A2); type: cell-based; conditions: Candida albicans
Procedure: (§3) C. albicans strains were tested against RTD-1, fluconazole, and caspofungin in microdilution broth in accordance with Clinical and Laboratory Standards Institute (CLSI) document M27-A2 with the exception that 25 mM MOPS was used in place of 165 mM MOPS, as described previously. Overnight cultures were harvested by centrifugation, washed twice with Ca^2+ and Mg^2+-free PBS, pH 7.2, and suspended in test medium (RPMI 1640 medium, 25 mM MOPS, 2 mM L-glutamine) at 10^4 CFU/ml[62]. Incubations were conducted in flat bottom, 96-well microtiter plates (Greiner bio-one, Monroe, NC) containing 0.2 ml test medium per well. Duplicate 0.1 ml aliquots of serial two-fold dilutions of peptides and antifungal drugs were dispensed into wells, each of which was inoculated with 0.1 ml of fungal cell suspension containing 1 × 10^3 CFU. Plates were incubated at 30 °C for 48 hours after which A600 was determined using a SpectraMax M5e plate reader.
(§4) Minimal fungicidal concentration (MFC) was determined by plating, on YPD plates, 10 µl from wells in MIC assay without cell growth and the first well with measurable turbidity as described[63]–[66] and corresponding aliquots from the no-agent controls. […] MFC is reported as the lowest concentration of peptide or antifungal drug that killed ≥99% of the input organisms.
(§5) MICs and MFCs of RTD-1 were also performed in the presence of 50% mouse serum. Serum was prepared from blood collected by cardiac puncture from BALB/c mice. After coagulation at room temperature, serum was collected by centrifugation (200 g for 10 min followed by 23,000 g for 15 min), and diluted with an equal volume of yeast inoculum in MIC test medium described above.

[4] = system: C. albicans 43001; test: as above; type: cell-based
Procedure: as §3, §4, §5

[5] = system: C. albicans 53264; test: as above; type: cell-based
Procedure: as §3, §4, §5

[6] = system: C. albicans 53264 biofilms; test: Biofilm XTT metabolic assay; type: cell-based; conditions: pre-adhesion, 2 h adherent and 24 h mature biofilms
Procedure: (§6) The antifungal activities of RTD-1, caspofungin and fluconazole were evaluated against biofilms of C. albicans SC5314 and 53264 essentially as described by Pierce et al.[67]. Briefly, biofilms established for 0 h (preadhesion), 2 h (adherent), or 24 h (mature) were developed by adding 1 × 10^5 yeast cells in 50 or 100 µl of RPMI-1640 to wells of flat-bottom 96-well microtiter plates (Costar, Corning, NY). Fifty or 100 µl aliquots of serial 2-fold dilutions of peptide or antifungal drugs were added to wells in triplicate and incubated for 24 h or 48 h prior to analysis of biofilm metabolic activities. Concentrations of reagents used were as follows: RTD-1 - 0.09 – 100 µg/ml (0.05–48 µM), Fluco – 1–250 µg/ml (3.3–816.3 µM); Caspo- 0.003–8 µg/ml ([…]–7.3 µM). Analysis of the effect of each agent on Candida biofilms was performed using an XTT colorimetric assay. One hundred µl of 1 µM XTT/menadione added to each biofilm well, plates were incubated in the dark for 3 h at 37 °C, and 80 µl of supernatant was transferred to a new 96-well flat-bottom microtiter plate (Greiner Bio-one, Monroe, NC). Absorbance was measured at 490 nm on a SpectraMax® i3x (Molecular Devices). Readings were plotted as average of triplicates after subtracting the corresponding values for negative controls (XTT/menadione only).

[7] = system: C. albicans SC5314 biofilms; test: Biofilm XTT metabolic assay; type: cell-based; conditions: pre-adhesion conditions
Procedure: as §6

[8] = system: C. albicans 53264; test: Systemic MDR candidiasis model, survival and renal fungal burden; type: in vivo, CD-1 mice; conditions: 5 mg/kg i.p. once per day for 7 days beginning 24 h p.i.; 1.8 × 10^7 blastospores i.v.; 40 days
Procedure: (as in Fig. 3d). CD-1, rather than BALB/c mice were used in the C. albicans 53264 challenge studies as this mouse strain was employed by Wiederhold et al. in the assessment of caspofungin efficacy against this pathogen. […] Fungal burdens were determined in kidneys of long term survivors in the RTD-1, Caspo, and Fluco-treated cohorts (euthanized at day 40) and from moribund mice from the survival study in Fig. 7a.
as §1, §2

| Molecule | renal fungal burden [1] | survival [1] | survival ([2]; 5 mg/kg i.p. once a day for 7 days, first dose 24 h after infection, 30 d) | survival ([2]; single 5 mg/kg dose at T = 0 (RTD-1 i.v., s.c. or i.p.; Fluco, Caspo i.p.), 3 × 10^5 blastospores i.v., 30 days, vs saline) | MIC ([3]; RPMI 1640, 25 mM MOPS, 2 mM L-glutamine, 1 × 10^3 CFU/well, 30 °C, 48 h, A600, complete inhibition of growth, duplicate) | MFC ([3]; RPMI, plating of MIC wells on YPD, ≥99% killing of input inoculum) | MIC ([4]; Candida albicans, 43001, 48 h) | MFC ([4]; Candida albicans, 43001, RPMI, plating of MIC wells on YPD, ≥99% killing of input inoculum) | MIC ([5]; Candida albicans, 53264, 48 h) | MFC ([5]; Candida albicans, 53264, RPMI, plating of MIC wells on YPD, ≥99% killing of input inoculum) | biofilm inhibition (XTT) [6] | biofilm inhibition (XTT) [7] | survival (log-rank) [8] |
| --- | --- | --- | --- | --- | --- | --- | --- | --- | --- | --- | --- | --- | --- |
| IDR-1018 | similarly modest reduction in renal fungal burden | modestly improved survival up to 8 days p.i. | – | – | – | – | – | – | – | – | – | – | – |
| OC(Cn1cncn1)(Cn1cncn1)c1ccc(F)cc1F [Fluco, fluconazole] | – | – | markedly enhanced survival | effective in enhancing survival | 64 µg/mL (≈ 209 µM) | > 256 µg/mL | > 256 µg/mL | > 256 µg/mL | > 256 µg/mL | > 256 µg/mL | highly resistant | more effective than RTD-1 at concentrations below 50 µg/ml | significantly (P < 0.0001) improved survival |
